Measurements as given in ChEMBL document CHEMBL4184284, “MF-8, a novel promising arylpiperazine-hydantoin based 5-HT7 receptor antagonist: In vitro drug-likeness studies and in vivo pharmacological evaluation” (Bioorg Med Chem Lett, 2018).
Activity calls are given as the source filed them. No cut-off for these calls is given here.

Columns and labels:
HepG2 [1] = experiment: Cytotoxicity against human HepG2 cells assessed as ATP level at 10 uM after 120 mins by bioluminescence-based assay relative to control; format: cell-based; settings: hepg2, 2 h
[2] = Effective permeability of the compound at 200 uM after 5 hrs by PAMPA; format: ADME; settings: read-out: Peff
Mus musculus [3] = experiment: Antidepressant-like activity in Swiss albino mouse assessed as decrease in immobility time at 10 to 20 mg/kg, ip administered 30 mins prior to test measured for last 4 mins of 6 mins observation by forced swim test; format: functional, organism-based
Rattus norvegicus [4] = experiment: Antidepressant-like activity in Wistar rat assessed as decrease in immobility time at 30 mg/kg, ip administered 30 mins prior to test measured for 5 mins by forced swim test; format: functional; parameters: scale not given: the % may be the effect or the level left
P-gp [5] = experiment: Activity at recombinant human Pgp expressed in cell membranes assessed as basal ATPase activity at 50 uM after 40 mins by P-gp Glo assay relative to control; format: ADME; settings: cell membranes expressing recombinant human P-gp, read-out: Activity
[6] = Intrinsic clearance in human liver microsomes at 50 uM preincubated for 5 mins followed by NADPH addition measured up to 45 mins; format: ADME, microsome; settings: read-out: CLH
[7] = Intrinsic clearance in mouse liver microsomes at 50 uM preincubated for 5 mins followed by NADPH addition measured up to 30 mins; format: ADME, microsome; settings: read-out: CLH
[8] = Intrinsic clearance in rat liver microsomes at 50 uM preincubated for 5 mins followed by NADPH addition measured up to 30 mins; format: ADME, microsome; settings: read-out: CLH
[9] = Drug metabolism in human liver microsomes at 50 uM preincubated for 5 mins followed by NADPH addition measured after 30 mins by UPLC-MS analysis; format: ADME, microsome; settings: 0.5 h
[10] = Drug metabolism in rat liver microsomes at 50 uM preincubated for 5 mins followed by NADPH addition measured after 30 mins by UPLC-MS analysis; format: ADME, microsome; settings: 0.5 h
[11] = Drug metabolism in mouse liver microsomes at 50 uM preincubated for 5 mins followed by NADPH addition measured after 30 mins by UPLC-MS analysis; format: ADME, microsome; settings: 0.5 h
CYP2D6 = CYP2D6 (Homo sapiens, UniProt P10635); experiment: Inhibition of CYP2D6 (unknown origin) assessed as residual activity at 25 uM using luciferin-ME EGE as substrate by CYP450-Glo assay; format: ADME; settings: CYP2D6 enzyme (unknown origin), probe luciferin-ME EGE, read-out: Activity
Sequence of CYP2D6 (P10635 whole entry): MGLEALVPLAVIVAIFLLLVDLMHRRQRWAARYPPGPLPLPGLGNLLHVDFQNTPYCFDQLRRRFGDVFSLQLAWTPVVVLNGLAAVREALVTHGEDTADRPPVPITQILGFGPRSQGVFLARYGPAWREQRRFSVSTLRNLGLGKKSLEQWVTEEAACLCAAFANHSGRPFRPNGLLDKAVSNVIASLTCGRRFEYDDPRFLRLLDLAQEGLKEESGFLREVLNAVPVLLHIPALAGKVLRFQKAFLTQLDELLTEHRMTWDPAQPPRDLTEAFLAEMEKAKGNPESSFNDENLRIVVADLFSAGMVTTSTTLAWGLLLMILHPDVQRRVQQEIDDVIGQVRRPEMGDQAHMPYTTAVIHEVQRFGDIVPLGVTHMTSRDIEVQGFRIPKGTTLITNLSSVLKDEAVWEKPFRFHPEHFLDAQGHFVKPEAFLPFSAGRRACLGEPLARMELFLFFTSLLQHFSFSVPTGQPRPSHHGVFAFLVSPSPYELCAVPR

Cytochrome P450 2D6 = Cytochrome P450 2D6 (Homo sapiens, UniProt P10635); experiment: Inhibition of CYP2D6 (unknown origin) at 0.025 to 25 uM using luciferin-ME EGE as substrate by CYP450-Glo assay; format: ADME
Sequence of Cytochrome P450 2D6 (P10635 whole entry): as above

[12] = Cytotoxicity against HEK293 cells assessed as cell viability at 100 uM after 48 hrs by EZ4U labeling based assay relative to control; settings: human, read-out: Activity
[13] = Cytotoxicity against human HepG2 cells assessed as ATP level at 100 uM after 120 mins by bioluminescence-based assay relative to control; format: cell-based; settings: read-out: Activity
HEK293 [14] = experiment: Cytotoxicity against HEK293 cells assessed as reduction in cell viability at 250 uM after 48 hrs by EZ4U labeling based assay; settings: human, hek293, 48 h
HepG2 [15] = experiment: Cytotoxicity against human HepG2 cells assessed as reduction in ATP level at 1 to 100 uM after 120 mins by bioluminescence-based assay; format: cell-based; settings: hepg2, 2 h
Salmonella typhimurium = experiment: Mutagenicity in Salmonella typhimurium TA100 assessed as revertant colonies at 1 to 10 uM by Ames test; format: toxicity, organism-based; settings: salmonella enterica subsp. enterica serovar typhimurium
Mus musculus [16] = experiment: Antidepressant-like activity in Swiss albino mouse assessed as decrease in immobility time at 5 mg/kg, ip administered 60 mins prior to test measured for last 4 mins of 6 mins observation by forced swim test; format: functional; parameters: scale not given: the % may be the effect or the level left
Mus musculus [17] = experiment: Antidepressant-like activity in Swiss albino mouse assessed as decrease in immobility time at 1.25 to 2.5 mg/kg, ip administered 60 mins prior to test measured for last 4 mins of 6 mins observation by forced swim test; format: functional, organism-based
Rattus norvegicus [18] = experiment: Antidepressant-like activity in Wistar rat assessed as decrease in immobility time at 5 mg/kg, ip administered 60 mins prior to test measured for 5 mins by forced swim test; format: functional; parameters: scale not given: the % may be the effect or the level left
Rattus norvegicus [19] = experiment: Antidepressant-like activity in Wistar rat assessed as decrease in immobility time at 10 mg/kg, ip administered 60 mins prior to test measured for 5 mins by forced swim test; format: functional; parameters: scale not given: the % may be the effect or the level left
Mus musculus [20] = experiment: Anxiolytic-like activity in Swiss albino mouse assessed as increase in number of punished crossings at 10 mg/kg, ip administered for 60 mins measured for 1 min post 3 sec electric shock by four-plate test; format: functional
Mus musculus [21] = experiment: Anxiolytic-like activity in Swiss albino mouse assessed as increase in number of punished crossings at 2.5 to 5 mg/kg, ip administered for 60 mins measured for 1 min post 3 sec electric shock by four-plate test; format: functional, organism-based
Mus musculus [22] = experiment: Toxicity in Swiss albino mouse assessed as effect on spontaneous locomotor activity at 1.25 to 5 mg/kg, ip measured for 2 to 6 mins; format: organism-based; settings: in vivo
Rattus norvegicus [23] = experiment: Toxicity in Wistar rat assessed as effect on spontaneous locomotor activity at 2.5 to 10 mg/kg, ip measured for 5 mins by open field test; format: organism-based; settings: in vivo
Mus musculus [24] = experiment: Toxicity in Swiss albino mouse assessed as effect on spontaneous locomotor activity at 2.5 to 10 mg/kg, ip measured for 1 min; format: organism-based; settings: in vivo
[25] = Drug level in human liver microsomes treated with MF-8 at 50 uM preincubated for 5 mins followed by NADPH addition measured after 30 mins by UPLC-MS analysis; format: ADME, microsome; settings: 0.5 h
[26] = Drug level in rat liver microsomes treated with MF-8 at 50 uM preincubated for 5 mins followed by NADPH addition measured after 30 mins by UPLC-MS analysis; format: ADME, microsome; settings: 0.5 h
[27] = Drug level in mouse liver microsomes treated with MF-8 at 50 uM preincubated for 5 mins followed by NADPH addition measured after 30 mins by UPLC-MS analysis; format: ADME, microsome; settings: 0.5 h
[28] = Retention time of the compound by UPLC-MS analysis; format: physicochemical
Mus musculus [29] = experiment: Antidepressant-like activity in Swiss albino mouse assessed as decrease in immobility time at 10 mg/kg, ip administered 30 mins prior to test measured for last 4 mins of 6 mins observation by forced swim test; format: functional, organism-based
Rattus norvegicus [30] = experiment: Antidepressant-like activity in Wistar rat assessed as decrease in immobility time at 1.25 mg/kg, ip administered 30 mins prior to test measured for 5 mins by forced swim test; format: functional; parameters: scale not given: the % may be the effect or the level left
Rattus norvegicus [31] = experiment: Antidepressant-like activity in Wistar rat assessed as decrease in immobility time at 2.5 mg/kg, ip administered 30 mins prior to test measured for 5 mins by forced swim test; format: functional; parameters: scale not given: the % may be the effect or the level left
Mus musculus [32] = experiment: Anxiolytic-like activity in Swiss albino mouse assessed as increase in number of punished crossings at 1 mg/kg, ip administered for 30 mins measured for 1 min post 3 sec electric shock by four-plate test; format: functional, organism-based
Mus musculus [33] = experiment: Anxiolytic-like activity in Swiss albino mouse assessed as increase in number of punished crossings at 1.25 to 5 mg/kg, ip administered for 60 mins measured for 1 min post 3 sec electric shock by four-plate test; format: functional, organism-based
[34] = Drug level in rat liver microsomes treated with aripiprazole at 50 uM preincubated for 5 mins followed by NADPH addition measured after 30 mins by UPLC-MS analysis; format: ADME, microsome; settings: 0.5 h
[35] = Drug level in mouse liver microsomes treated with aripiprazole at 50 uM preincubated for 5 mins followed by NADPH addition measured after 30 mins by UPLC-MS analysis; format: ADME, microsome; settings: 0.5 h
[36] = Drug level in human liver microsomes treated with aripiprazole at 50 uM preincubated for 5 mins followed by NADPH addition measured after 30 mins by UPLC-MS analysis; format: ADME, microsome; settings: 0.5 h
[37] = Drug metabolism in human liver microsomes assessed as OPC-14857 formation at 50 uM preincubated for 5 mins followed by NADPH addition measured after 30 mins by UPLC-MS analysis; format: ADME, microsome; settings: 0.5 h
[38] = Drug metabolism in rat liver microsomes assessed as DM1451 formation at 50 uM preincubated for 5 mins followed by NADPH addition measured after 30 mins by UPLC-MS analysis; format: ADME, microsome; settings: 0.5 h
[39] = Drug metabolism in mouse liver microsomes assessed as DM1451 formation at 50 uM preincubated for 5 mins followed by NADPH addition measured after 30 mins by UPLC-MS analysis; format: ADME, microsome; settings: 0.5 h
[40] = Drug metabolism in mouse liver microsomes assessed as hydroxylated main metabolite formation at 50 uM preincubated for 5 mins followed by NADPH addition measured after 30 mins by UPLC-MS analysis; format: ADME, microsome; settings: 0.5 h
HEK293 [41] = experiment: Cytotoxicity against HEK293 cells assessed as reduction in cell viability at 1 uM after 48 hrs by EZ4U labeling based assay; settings: human, hek293, 48 h
[42] = Activity at recombinant human Pgp expressed in cell membranes assessed as basal ATPase activity at 100 uM after 200 mins by P-gp Glo assay relative to control; format: ADME
P-gp [43] = experiment: Activity at recombinant human Pgp expressed in cell membranes assessed as basal ATPase activity at 200 uM after 200 mins by P-gp Glo assay relative to control; format: ADME; settings: cell membranes expressing recombinant human P-gp, read-out: Activity

N#CC(C#N)=NNc1cccc(Cl)c1 [CARBONYL CYANIDE M-CHLOROPHENYLHYDRAZONE]
Activity (HepG2 [1]): 78%

CCn1cc(C(=O)O)c(=O)c2cc(F)c(N3CCNCC3)cc21 [NORFLOXACIN]
Papp at 5 h, 200 µM [2]: 0.95 ×10⁻⁶ cm/s

CN(C)CCCN1c2ccccc2CCc2ccccc21 [IMIPRAMINE]
Activity (Mus musculus [3]): Active
Activity (Rattus norvegicus [4]): 30%

COc1ccccc1N1CCN(CC(O)CN2C(=O)NC(C)(c3ccc(F)cc3)C2=O)CC1 (stereo not given)
Papp at 5 h, 200 µM [2]: 2.3 ×10⁻⁶ cm/s
activity at 40 min, 50 µM (P-gp [5]): 88.7%
CLint scaled at 50 µM [6]: 8.2 mL/min/kg
CLint scaled at 50 µM [7]: 17.2 mL/min/kg
CLint scaled at 50 µM [8]: 21.2 mL/min/kg
Drug metabolism [9]: Metabolite_Detected
Drug metabolism [10]: Metabolite_Detected
Drug metabolism [11]: Metabolite_Detected
activity at 25 µM (CYP2D6): 69.4%
inhibition (INH) (Cytochrome P450 2D6): Not Active
viability at 48 h, 100 µM [12]: 89.2%
viability at 2 h, 100 µM [13]: 90%
Activity (HEK293 [14]): Toxic
Activity (HepG2 [15]): Non-Toxic
Activity (Salmonella typhimurium): Non-Toxic
Activity (Mus musculus [16]): 36%
Activity (Mus musculus [17]): inactive
Activity (Rattus norvegicus [18]): 35%
Activity (Rattus norvegicus [19]): 26%
Activity (Mus musculus [20]): 30%
Activity (Mus musculus [21]): inactive
Activity (Mus musculus [22]): Non-Toxic
Activity (Rattus norvegicus [23]): Non-Toxic
Activity (Mus musculus [24]): Non-Toxic

COc1cc(O)ccc1N1CCN(CC(O)CN2C(=O)NC(C)(c3ccc(F)cc3)C2=O)CC1 (stereo not given)
Drug metabolism [25]: Metabolite_Detected
Drug metabolism [26]: Metabolite_Detected
Drug metabolism [27]: Metabolite_Detected
Retention_time [28]: 3.4 min

CC1CCN(CC[C@H]2CCCN2S(=O)(=O)c2cccc(O)c2)CC1
Activity (Mus musculus [29]): Active
Activity (Rattus norvegicus [30]): 30%
Activity (Rattus norvegicus [31]): 22%
Activity (Mus musculus [32]): Active

Cn1c(=O)c2c(ncn2C)n(C)c1=O [CAFFEINE]
Papp at 5 h, 200 µM [2]: 3.61 ×10⁻⁶ cm/s

CN1C(=O)CN=C(c2ccccc2)c2cc(Cl)ccc21
Activity (Mus musculus [33]): Active

O=C1CCc2ccc(OCCCCN3CCN(c4ccc(O)c(Cl)c4Cl)CC3)cc2N1
Drug metabolism [34]: Metabolite_Detected
Drug metabolism [35]: Metabolite_Detected

O=c1ccc2ccc(OCCCCN3CCN(c4cccc(Cl)c4Cl)CC3)cc2[nH]1
Drug metabolism [36]: Metabolite_Detected

O=C1CCc2ccc(OCCCCN3CCN(c4cccc(Cl)c4Cl)CC3)cc2N1 [ARIPIPRAZOLE]
CLint scaled at 50 µM [7]: 12.5 mL/min/kg
CLint scaled at 50 µM [8]: 7.02 mL/min/kg
Drug metabolism [37]: Metabolite_Detected
Drug metabolism [38]: Metabolite_Detected
Drug metabolism [39]: Metabolite_Detected
Drug metabolism [40]: Metabolite_Detected

COc1cccc2c1C(=O)c1c(O)c3c(c(O)c1C2=O)C[C@@](O)(C(=O)CO)C[C@@H]3O[C@H]1C[C@H](N)[C@H](O)[C@H](C)O1 [DOXORUBICIN]
Activity (HEK293 [41]): Toxic

SODIUM ORTHOVANAD
Activity [42]: 0%

COc1ccc(CCN(C)CCCC(C#N)(c2ccc(OC)c(OC)c2)C(C)C)cc1OC (stereo not given)
activity at 200 min, 200 µM (P-gp [43]): > 160%
